We go through 11 compounds from US20240116985A1, “STAPLED PEPTIDES AND METHODS THEREOF” (priority 2020, published 2024).

The target in assay [1] is T1, full-length beta-Catenin (Uniprot ID P35222) (Homo sapiens, UniProt P35222).
T1 construct: 10 nM full-length beta-Catenin (Uniprot ID P35222)
T1 sequence (P35222 1-781): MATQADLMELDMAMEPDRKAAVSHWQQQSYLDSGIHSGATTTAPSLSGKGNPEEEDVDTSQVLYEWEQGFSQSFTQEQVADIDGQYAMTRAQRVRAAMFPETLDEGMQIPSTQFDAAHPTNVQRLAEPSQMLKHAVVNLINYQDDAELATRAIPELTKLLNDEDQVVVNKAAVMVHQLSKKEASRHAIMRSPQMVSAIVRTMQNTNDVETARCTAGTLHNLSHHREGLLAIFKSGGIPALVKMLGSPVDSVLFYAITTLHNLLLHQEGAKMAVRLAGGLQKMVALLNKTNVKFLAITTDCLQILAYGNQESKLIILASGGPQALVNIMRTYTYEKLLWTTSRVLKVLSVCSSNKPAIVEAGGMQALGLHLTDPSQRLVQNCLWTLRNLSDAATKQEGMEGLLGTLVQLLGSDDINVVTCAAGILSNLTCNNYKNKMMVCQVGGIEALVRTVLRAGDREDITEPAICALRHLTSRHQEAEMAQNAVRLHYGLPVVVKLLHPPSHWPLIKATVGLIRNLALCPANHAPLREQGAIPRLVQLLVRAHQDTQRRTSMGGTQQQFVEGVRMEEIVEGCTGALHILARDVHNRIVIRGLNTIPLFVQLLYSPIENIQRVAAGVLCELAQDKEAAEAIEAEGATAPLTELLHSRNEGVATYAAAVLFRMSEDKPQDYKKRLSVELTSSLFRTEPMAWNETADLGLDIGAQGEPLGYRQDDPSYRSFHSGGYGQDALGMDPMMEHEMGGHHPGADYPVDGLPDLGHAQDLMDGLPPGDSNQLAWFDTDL
The assay is described as follows: Fluorescence polarization IC50 (beta-catenin / 5FAM-TCF4 10-53 competition). Type of assay: binding. The settings on record: fluorescence polarization; read-out: beta-Catenin FP IC50.

Assay [2] concerns the target T2, beta-catenin/TCF4 engagement (Homo sapiens, UniProt P35222).
T2 construct: expressed in transfected cells; host or cells: HEK293
T2 sequence (P35222 1-781): T1 sequence (P35222 1-781)
In words: Nano-BRET target engagement assay (B-cat-Halo & TCF4-Luc in HEK293 cells). Format: cell-based. To be noted: absolute IC50; read-out: NanoBRET Abs IC50. A general note: Bioluminescence resonance energy transfer reports proximity on the nanometre scale.

`CC(=O)N1CCC[C@]12CC=CCCCC1(CCCC=CCCCOC(=O)N3CC[C@@](C(=O)N[C@@H](Cc4ccsc4)C(=O)N[C@@H](Cc4csc5ccccc45)C(=O)N[C@@H](CCC(N)=O)C(N)=O)(C3)NC(=O)[C@H](CC(N)=O)NC(=O)[C@H](Cc3ccccc3)NC(=O)[C@H](C)NC(=O)[C@H](C)NC(=O)[C@H](CN(CCCC(F)(F)F)CC(=O)O)NC(=O)[C@H](CC(=O)O)NC1=O)NC(=O)[C@H](CC(C)(C)C)NC(=O)[C@H](CC(=O)O)NC2=O` (stereo partly drawn) [I-1634, Ac-PL3-Asp-Npg-B5-Asp-[Tfb]GA-Ala-Ala-Phe-Asn-PyrS2-3Thi-BztA-Gln-NH2]: the IC50 (commonly the concentration that inhibits the measured activity by half) in assay [1] was found to be 9 nM; in assay [2] it was 16500 nM.
As to `CC(=O)N1CCC[C@]12CC=CCCCC1(CCCC=CCCCOC(=O)N3CC[C@@](C(=O)N[C@@H](Cc4ccsc4)C(=O)N[C@@H](Cc4csc5ccccc45)C(=O)N[C@@H](CCC(N)=O)C(N)=O)(C3)NC(=O)[C@H](CC(N)=O)NC(=O)[C@H](Cc3ccccc3)NC(=O)[C@H](C)NC(=O)[C@H](C)NC(=O)[C@H](CN(CC(=O)O)Cc3ccccc3)NC(=O)[C@H](CC(=O)O)NC1=O)NC(=O)[C@H](CC(C)(C)C)NC(=O)[C@H](CC(=O)O)NC2=O` (stereo partly drawn) [I-1635, Ac-PL3-Asp-Npg-B5-Asp-[Bn]GA-Ala-Ala-Phe-Asn-PyrS2-3Thi-BztA-Gln-NH2], the IC50 in assay [1] amounted to 7 nM; in assay [2], 20600 nM.
Taken in the same sequence, the figures for `CC(=O)N1CCC[C@]12CC=CCCCC1(CCCC=CCCCOC(=O)N3CC[C@@](C(=O)N[C@@H](Cc4ccsc4)C(=O)N[C@@H](Cc4csc5ccccc45)C(=O)N[C@@H](CCC(N)=O)C(N)=O)(C3)NC(=O)[C@H](CC(N)=O)NC(=O)[C@H](Cc3ccccc3)NC(=O)[C@H](C)NC(=O)[C@H](C)NC(=O)[C@H](CN(C)CC(=O)O)NC(=O)[C@H](CC(=O)O)NC1=O)NC(=O)[C@H](CC(C)(C)C)NC(=O)[C@H](CC(=O)O)NC2=O` (stereo partly drawn) [I-1636, Ac-PL3-Asp-Npg-B5-Asp-[Me]GA-Ala-Ala-Phe-Asn-PyrS2-3Thi-BztA-Gln-NH2] were 17 nM and more than 20000 nM.
As for `CC(=O)N1CCC[C@]12CC=CCCCC1(CCCC=CCCCOC(=O)N3CC[C@@](C(=O)N[C@@H](Cc4ccsc4)C(=O)N[C@@H](Cc4csc5ccccc45)C(=O)N[C@@H](CCC(N)=O)C(N)=O)(C3)NC(=O)[C@H](CC(N)=O)NC(=O)[C@H](Cc3ccccc3)NC(=O)[C@H](C)NC(=O)[C@H](C)NC(=O)[C@H](CN(C)CC(=O)O)NC(=O)[C@H](CC(=O)O)NC1=O)NC(=O)[C@H](CC(C)(C)C)NC(=O)[C@H](CC(=O)O)NC2=O` (stereo partly drawn) [I-1637, Ac-PL3-Asp-Npg-B5-Asp-[Me]GA-Ala-Ala-Phe-Asn-PyrS2-3Thi-BztA-Gln-NH2], the IC50 in assay [1] was 11 nM; in assay [2], more than 20000 nM.
As to `CC(=O)N1CCC[C@]12CC=CCCCC1(CCCC=CCCCOC(=O)N3CC[C@@](C(=O)N[C@@H](Cc4ccsc4)C(=O)N[C@@H](Cc4csc5ccccc45)C(=O)N[C@@H](CCC(N)=O)C(N)=O)(C3)NC(=O)[C@H](CC(N)=O)NC(=O)[C@H](Cc3ccccc3)NC(=O)[C@H](C)NC(=O)[C@H](C)NC(=O)[C@H](CN(CC(=O)O)Cc3c(F)c(F)c(F)c(F)c3F)NC(=O)[C@H](CC(=O)O)NC1=O)NC(=O)[C@H](CC(C)(C)C)NC(=O)[C@H](CC(=O)O)NC2=O` (stereo partly drawn) [I-1638, Ac-PL3-Asp-Npg-B5-Asp-[Pfbn]GA-Ala-Ala-Phe-Asn-PyrS2-3Thi-BztA-Gln-NH2], the concentration for half-maximal inhibition (IC50) in assay [1] worked out at 9 nM; in assay [2], 14500 nM.
As for `CC(=O)N1CCC[C@]12CC=CCCCC1(CCCC=CCCCOC(=O)N3CC[C@@](C(=O)N[C@@H](Cc4ccsc4)C(=O)N[C@@H](Cc4csc5ccccc45)C(=O)N[C@@H](CCC(N)=O)C(N)=O)(C3)NC(=O)[C@H](CC(N)=O)NC(=O)[C@H](Cc3ccccc3)NC(=O)[C@H](C)NC(=O)[C@H](C)NC(=O)[C@H](CN(CC(=O)O)Cc3c(F)c(F)c(F)c(F)c3F)NC(=O)[C@H](CC(=O)O)NC1=O)NC(=O)[C@H](CC(C)(C)C)NC(=O)[C@H](CC(=O)O)NC2=O` (stereo partly drawn) [I-1639, Ac-PL3-Asp-Npg-B5-Asp-[Pfbn]GA-Ala-Ala-Phe-Asn-PyrS2-3Thi-BztA-Gln-NH2], the IC50 in assay [1] worked out at 13 nM; in assay [2], 32900 nM.
In the case of `CC(=O)N1CCC[C@]12CC=CCCCC1(CCCC=CCCCOC(=O)N3CC[C@@](C(=O)N[C@@H](Cc4ccccc4)C(=O)N[C@@H](Cc4csc5ccccc45)C(=O)N[C@@H](CCC(N)=O)C(N)=O)(C3)NC(=O)[C@H](CC(C)C)NC(=O)[C@H](Cc3ccccc3)NC(=O)[C@H](C)NC(=O)[C@H](CCCCNC(C)C)NC(=O)[C@H](CCC(N)=O)NC(=O)[C@H](CC(=O)O)NC1=O)NC(=O)[C@H](CC1CCCCC1)NC(=O)[C@H](CC(N)=O)NC2=O` (stereo partly drawn) [I-1648, Ac-PL3-Asn-Cha-B5-Asp-Gln-iPrLys-Ala-Phe-Leu-PyrS2-Phe-BztA-Gln-NH2], the IC50 in assay [1] was 191 nM; in assay [2], more than 20000 nM.
Take `CC(=O)N1CCC[C@]12CC=CCCCC1(CCCC=CCCCOC(=O)N3CC[C@@](C(=O)N[C@@H](Cc4ccccc4C(F)(F)F)C(=O)N[C@@H](Cc4csc5ccccc45)C(=O)N[C@@H](CCC(N)=O)C(N)=O)(C3)NC(=O)[C@H](Cc3ccccc3)NC(=O)[C@H](Cc3ccccc3)NC(=O)[C@H](C)NC(=O)[C@H](C)NC(=O)[C@H](Cc3ccccc3C(=O)O)NC(=O)[C@H](CC(=O)O)NC1=O)NC(=O)[C@H](CC(C)(C)C)NC(=O)[C@H](CC(=O)O)NC2=O` (stereo partly drawn) [I-1655, Ac-PL3-Asp-Npg-B5-Asp-2COOHF-Ala-Ala-Phe-Phe-PyrS2-2F3MeF-BztA-Gln-NH2]: the IC50 was found to be 48 nM in assay [1] and 12700 nM in assay [2].
Take `CC(=O)N1CCC[C@]12CC=CCCCC1(CCCC=CCCCOC(=O)N3CC[C@@](C(=O)N[C@@H](Cc4ccccc4C(F)(F)F)C(=O)N[C@@H](Cc4csc5ccccc45)C(=O)N[C@@H](CCC(N)=O)C(N)=O)(C3)NC(=O)[C@H](CC(C)C)NC(=O)[C@H](Cc3ccccc3)NC(=O)[C@H](C)NC(=O)[C@H](C)NC(=O)[C@H](Cc3ccccc3C(=O)O)NC(=O)[C@H](CC(=O)O)NC1=O)NC(=O)[C@H](CC(C)(C)C)NC(=O)[C@H](CC(=O)O)NC2=O` (stereo partly drawn) [I-1656, Ac-PL3-Asp-Npg-B5-Asp-2COOHF-Ala-Ala-Phe-Leu-PyrS2-2F3MeF-BztA-Gln-NH2]: the IC50 in assay [1] worked out at 20 nM; in assay [2] it was 10900 nM.
As to `CC(=O)N1CCC[C@]12CC=CCCCC1(CCCC=CCCCOC(=O)N3CC[C@@](C(=O)N[C@@H](Cc4ccccc4Cl)C(=O)N[C@@H](Cc4csc5ccccc45)C(=O)N[C@@H](CCC(N)=O)C(N)=O)(C3)NC(=O)[C@H](Cc3ccccc3)NC(=O)[C@H](Cc3ccccc3)NC(=O)[C@H](C)NC(=O)[C@H](C)NC(=O)[C@H](Cc3ccccc3C(=O)O)NC(=O)[C@H](CC(=O)O)NC1=O)NC(=O)[C@H](CC(C)(C)C)NC(=O)[C@H](CC(=O)O)NC2=O` (stereo partly drawn) [I-1657, Ac-PL3-Asp-Npg-B5-Asp-2COOHF-Ala-Ala-Phe-Phe-PyrS2-2C1F-BztA-Gln-NH2], the results for the half-inhibitory concentration (IC50) in assay [1] and in assay [2] were 36 nM and 11000 nM, respectively.
On the same counts, the results for `CC(=O)N1CCC[C@]12CC=CCCCC1(CCCC=CCCCOC(=O)N3CC[C@@](C(=O)N[C@@H](Cc4ccccc4Cl)C(=O)N[C@@H](Cc4csc5ccccc45)C(=O)N[C@@H](CCC(N)=O)C(N)=O)(C3)NC(=O)[C@H](CC(C)C)NC(=O)[C@H](Cc3ccccc3)NC(=O)[C@H](C)NC(=O)[C@H](C)NC(=O)[C@H](Cc3ccccc3C(=O)O)NC(=O)[C@H](CC(=O)O)NC1=O)NC(=O)[C@H](CC(C)(C)C)NC(=O)[C@H](CC(=O)O)NC2=O` (stereo partly drawn) [I-1658, Ac-PL3-Asp-Npg-B5-Asp-2COOHF-Ala-Ala-Phe-Leu-PyrS2-2C1F-BztA-Gln-NH2] are 19 nM and 9800 nM.
